Experimental data published in PMC9243782 (Aaps Open, 2022).
Read-outs that look alike come from different tables or passages of the source.

Assays:
[1] = cited from earlier work
[2] = First in human single ascending dose and food effect PK study of JOTROL, plasma; conditions: for AUC(0-t) / Cmax / Tmax / half-life / AUC(0-inf) / k el: both, human; for AUC(0-inf): AUC0-inf; for k el: Kel
Protocol: A total of 24 healthy, adult male or female volunteers were included in study part 1. […] A food effect arm was also included as part 2. […] Given that the in life portion of the study was done during the pandemic, total number, gender, ethnicity, etc., of the subjects was not mandated. A total of 4 study periods were included in this study with washout of at least 14 days between doses. […] After the completion of each cohort, an evaluation of the safety data was performed prior to determining whether to proceed with enrollment for the next scheduled dose level, to modify the dose, or to discontinue the study. […] The aliquots were transferred to a - 80 °C freezer (no more than 60 min passed between the start of centrifugation and aliquot storage), pending analysis/shipment to the analytical facility. […] Samples are extracted by a protein precipitation extraction procedure, and the compounds are detected and quantified by tandem mass spectrometry in positive ion mode on an MDS Sciex API 6500+ equipped with a Turbo Ionspray® interface. […] All concentration values that were below the lower limit of quantification (BLQ) occurring prior to dosing as well as samples with no reportable value (NRV) occurring prior to dosing were replaced by “0.00”; otherwise, they (BLQ and NRV) were set to missing for tabulation, graphical representation, and calculation purposes. PK analyses were performed using Phoenix WinNonlin® version 8.2, which was validated by Syneos Health. The WinNonlin noncompartmental analysis (NCA) module was used [NT]0-t (last detectable concentration), AUC0-inf (infinity), residual area (%), Cmax, Tmax, T1/2 el (elimination half-life), and Kel (elimination rate constant). […] Power model included the PK parameter as the response variable and dose (mg) as the explanatory variable. For this model, the variable dose was treated as a continuous variable. For evaluation of the food-effect, PK data (ln-transformed AUC0-t, AUC0-inf, Cmax and untransformed Tmax) reported under fed conditions (Period 4) and under fasting conditions (for the same dose level) were compared using analysis of variance (ANOVA) from SAS®. The ratio (fed/fasting) and 90% geometric CI were also calculated for AUC0-t, AUC0-inf, and Cmax.

[3] = First in human PK study of JOTROL, urine excretion; assay type: in vivo; conditions: for CL renal: human, urine
Protocol: For day 2 (24 h post-dose) urine collection, subjects were asked to void their bladder within 15 min before the end of the collection interval (12–24 h). For other collections, subjects were asked to void their bladder within 10 min before the end of each collection interval. Urine voided at the intersection of two intervals was included in the earlier interval. Any urine voided by subjects but not collected was documented.
The volume of urine collected in each interval was measured (individual urine volumes are on file), and two aliquots of equal volume were dispensed into polypropylene tubes for each interval. Aliquots were stored in a − 80 °C freezer, pending analysis; remaining urine from each subject was discarded.

[4] = plasma, po, 200 mg, resveratrol in plasma, mean, Treatment A: JOTROL 200 mg single oral dose, fasting
[5] = plasma, po, 500 mg, resveratrol in plasma, mean, Treatment B: JOTROL 500 mg single oral dose, fasting
[6] = plasma, po, 500 mg, resveratrol in plasma, mean, Treatment D: JOTROL 500 mg single oral dose, fed (high-fat meal)
[7] = plasma, po, 700 mg, resveratrol in plasma, mean, Treatment C: JOTROL 700 mg single oral dose, fasting
[8] = 500 mg caplets, 5 g, mean ± SD, ref Boocock et al. ([2007])
[9] = 500 mg caplets, 5 g, mean ± SD, ref Brown et al. ([2010])
[10] = Friedreich's ataxia study, ref Yiu et al. ([2015])

Oc1ccc(/C=C/c2cc(O)cc(O)c2)cc1 [micronized resveratrol]
Absorption ([1]; human, in vivo, po): ~ 70%

O=S(=O)(O)Oc1cc(O)cc(C=Cc2ccc(O)cc2)c1 [resveratrol-3-sulfate]
Effect of food consumption on metabolite concentrations ([2]; JOTROL 500 mg fed vs fasting): significantly decreased
AUC(0-t) ([2]; plasma, oral, Mean AUC0-t, range over doses, metabolite in plasma, increasing JOTROL (resveratrol) doses): 12 to 54.5 µg·h/mL
Cmax ([2]; plasma, oral, Mean Cmax, range over doses, metabolite in plasma, increasing JOTROL (resveratrol) doses): 6.62 to 23.6 µg/mL

Oc1ccc(/C=C/c2cc(O)cc(O)c2)cc1 [Resveratrol, 3,5,4′-stilbenotriol]
Delay of the peak concentration by food ([2]; JOTROL 500 mg fed vs fasting): approximately 30 min
Dose proportionality of AUC0-t and Cmax (power model) ([2]; JOTROL 200, 500, 700 mg fasting): higher than expected if dose proportional
Gender differences in the exposure of resveratrol ([2]; all JOTROL doses, p = 0.011): mean female AUC values tend to be higher than male values
Tmax ([2]; in vivo, po, 500 mg): 1 h
Tmax ([2]; plasma, oral): ~1 h
AUC(0-t) ([2]; plasma, oral, Mean AUC0-t, range over doses, resveratrol in plasma, JOTROL 200 to 700 mg, fasting): 0.149 to 0.886 µg·h/mL
half-life ([2]; plasma, oral, T½, resveratrol in plasma after JOTROL, N low, interpret with caution): ~2 h
Tmax ([2]; plasma, po, 200 mg): 0.999 h
AUC(0-inf) [2, 4]: 0.215 µg·h/mL
AUC(0-t) ([2]; plasma, po, 200 mg, AUC0-t, resveratrol in plasma, mean, Treatment A: JOTROL 200 mg single oral dose, fasting): 0.149 µg·h/mL
k el [2, 4]: 0.000153 s⁻¹
half-life ([2]; plasma, po, 200 mg, T1/2 el, resveratrol in plasma, mean, Treatment A: JOTROL 200 mg single oral dose, fasting): 1.26 h
AUC(0-inf) [2, 5]: 0.574 µg·h/mL
AUC(0-inf) [2, 6]: 0.613 µg·h/mL
AUC(0-t) ([2]; plasma, po, 500 mg, AUC0-t, resveratrol in plasma, mean, Treatment B: JOTROL 500 mg single oral dose, fasting): 0.48 µg·h/mL
AUC(0-t) ([2]; plasma, po, 500 mg, AUC0-t, resveratrol in plasma, mean, Treatment D: JOTROL 500 mg single oral dose, fed (high-fat meal)): 0.306 µg·h/mL
Cmax ([2]; plasma, po, 500 mg, Cmax, resveratrol in plasma, mean, Treatment B: JOTROL 500 mg single oral dose, fasting): 0.455 µg/mL
k el [2, 5]: 9.22e-05 s⁻¹
k el [2, 6]: 0.000152 s⁻¹
half-life ([2]; plasma, po, 500 mg, T1/2 el, resveratrol in plasma, mean, Treatment B: JOTROL 500 mg single oral dose, fasting): 2.74 h
half-life ([2]; plasma, po, 500 mg, T1/2 el, resveratrol in plasma, mean, Treatment D: JOTROL 500 mg single oral dose, fed (high-fat meal)): 1.71 h
Tmax ([2]; plasma, po, 700 mg): 1.02 h
AUC(0-inf) [2, 7]: 0.611 µg·h/mL
AUC(0-t) ([2]; plasma, po, 700 mg, AUC0-t, resveratrol in plasma, mean, Treatment C: JOTROL 700 mg single oral dose, fasting): 0.886 µg·h/mL
Cmax ([2]; plasma, po, 700 mg, Cmax, resveratrol in plasma, mean, Treatment C: JOTROL 700 mg single oral dose, fasting): 0.805 µg/mL
k el [2, 7]: 0.000126 s⁻¹
half-life ([2]; plasma, po, 700 mg, T1/2 el, resveratrol in plasma, mean, Treatment C: JOTROL 700 mg single oral dose, fasting): 1.6 h
Residual Area ([2]; resveratrol in plasma, mean, Treatment D: JOTROL 500 mg single oral dose, fed (high-fat meal)): 3.7%
CL renal ([3]; oral, resveratrol after JOTROL 200 to 700 mg, read-out: Renal clearance, range over treatments): 2.33 to 4.17 mL/min
CL renal ([3]; oral, resveratrol after JOTROL, conversion of 0.14 to 0.25 L/h, read-out: Renal clearance): ~4 mL/min
CL renal ([3]; po, 200 mg, resveratrol renal clearance, mean, Treatment A: JOTROL 200 mg single oral dose, fasting, read-out: CLR (converted)): 4.17 mL/min
CL renal ([3]; po, 500 mg, resveratrol renal clearance, mean, Treatment B: JOTROL 500 mg single oral dose, fasting, read-out: CLR (converted)): 2.33 mL/min
CL renal ([3]; po, 700 mg, resveratrol renal clearance, mean, Treatment C: JOTROL 700 mg single oral dose, fasting, read-out: CLR (converted)): 3.17 mL/min
Renal clearance as share of GFR ([3]; resveratrol after JOTROL): 3 % of GFR
TRmax ([3]; resveratrol in urine, mean, Treatment A: JOTROL 200 mg single oral dose, fasting): 1.5 h
Cmax ([1]; 25 mg (overnight fast +3 h), radiolabeled dose, ref Walle et al. ([2004])): < 0.005 µg/mL
AUC ([1]; 500 mg caplets, 5 g, AUC to infinity, mean ± SD, ref Boocock et al. ([2007])): 1.319 ± 0.78 µg·h/mL
Cmax [1, 8]: 0.538 ± 0.391 µg/mL
t1/2 [1, 8]: 8.5 ± 8.2 h
AUC [1, 9]: 4.097 ± 4.384 µg·h/mL
Cmax [1, 9]: 0.967 ± 0.517 µg/mL
t1/2 [1, 9]: 7.85 ± 1.97 h
Cmax ([1]; 1 g encapsulated dose, ref Turner et al., Neurology 85:1383-91, 2015): 0.085 µg/mL
Cmax ([1]; 2 g, 500 mg encapsulated, mean ± SD, ref Turner et al. ([2015])): 0.085 ± 0.184 µg/mL
t1/2 ([1]; 2 g, 500 mg encapsulated, ref Turner et al. ([2015])): 15 h
Cmax ([1]; 2.5 g micronized dose, ref Howells et al., Cancer Prev Res (Phila) 4:1419-1425, 2011): 1.942 µg/mL
AUC exposure (estimated) ([1]; 3,000 mg/day of unmodified resveratrol, healthy volunteers, ref published data): 2.1 µg·h/mL
Plasma Cmax associated with positive biomarker outcomes (amyloid beta, inflammation modulators) ([1]; Alzheimer's trial, ref Turner et al. [2015], Moussa et al. [2017], Sawda et al. [2017]): 0.085 µg/mL
Nominal mean plasma Cmax not associated with any efficacy [1, 10]: 0.128 µg/mL
Nominal plasma mean Cmax associated with positive clinical outcomes [1, 10]: 0.261 µg/mL
